Results published in patent publication US20050101595A1, “N-containing cycloalkyl-substituted amino-thiazole derivatives and pharmaceutical compositions for inhibiting cell proliferation and methods for their use” (PFIZER INC., priority 2003, published 2005).

What follows are compounds tested on HCT-116 cell line (assay: Inhibition of cell growth, tetrazolium salt (MTT) assay). Details: HCT116 cells; compound at 250 nM.
Format: cell-based
Protocol: Inhibition of Cell Growth: Assessment of Cytotoxicity:
Inhibition of cell growth was measured using the tetrazolium salt assay, which is based on the ability of viable cells to reduce 3-(4,5-dimethylthiazol-2-yl)-2,5-[2H]-diphenyltetrazolium bromide (MTT) to formazan (Mossman, Journal of Immunological Methods, vol. 65 (1983), pp. 55-58). The water-insoluble purple formazan product was then detected spectrophotometrically. The HCT-116 cell line was used as a representative cancer cell line and grown in 96-well plates. Cells were plated in McCoy's 5A Medium at a volume of 135 μl/well. Plates were incubated for four hours before addition of inhibitor compounds. Different concentrations of inhibitor compounds were added in 0.5% (v/v) dimethylsulfoxide (15 μLuwell), and cells were incubated at 37° C. (5% CO2) for three to five days. At the end of the incubation, MTT was added to a final concentration of 0.2 mg/mL, and cells were incubated for 4 hours more at 37° C. After centrifugation of the plates and removal of medium, the absorbance of the formazan (solubilized in dimethylsulfoxide) was measured at 540 nm. […] All results were compared to control cells treated only with 0.5% (v/v) dimethylsulfoxide.

With CC1CCCN1CCS(=O)(=O)N1CCC(Nc2nc(N)c(C(=O)c3c(F)cccc3F)s2)CC1 (racemic) [Example S40] the “% Inhibition HCT116 @ 250 nM” value was 93%.

Same assay, conditions: HCT116 cells; compound at 250 nM; 0.25 µM

CC(=O)NCCNCCS(=O)(=O)N1CCC(Nc2nc(N)c(C(=O)c3c(F)cccc3F)s2)CC1 [Example S165] was tested, and the “% Inhibition HCT116 @ 250 nM” value was 25%.

Same assay, conditions: Homo sapiens, HCT-116, 120 h, first HCT-116 column (c4); MTT, three to five days; read-out: HCT-116 IC50

Point of comparison: C[C@H](NCCS(=O)(=O)N1CCC(Nc2nc(N)c(C(=O)c3c(F)cccc3F)s2)CC1)c1ccccc1 [Example K47], IC50 100 nM. Against it:
- Nc1nc(NC2CCN(S(=O)(=O)CCN(Cc3ccccc3)CC3CC3)CC2)sc1C(=O)c1c(F)cccc1F [Example K53, (4-Amino-2-{1-[2-(benzyl-cyclopropylmethyl-amino)-ethanesulfonyl]-piperidin-4-ylamino}-thiazol-5-yl)-(2,6-difluoro-phenyl)-methanone] — 2.3-fold higher, 230 nM
- Nc1nc(NC2CCN(S(=O)(=O)CCNCc3ccccc3)CC2)sc1C(=O)c1c(F)cccc1F [Example K48] — 1.7-fold higher, 170 nM

Same assay, conditions: Homo sapiens, HCT-116, 120 h, second HCT-116 column (c5); MTT, three to five days; read-out: HCT-116 IC50

Point of comparison: Nc1nc(NC2CCN(S(=O)(=O)CCN(Cc3ccccc3)CC3CC3)CC2)sc1C(=O)c1c(F)cccc1F [Example K53, (4-Amino-2-{1-[2-(benzyl-cyclopropylmethyl-amino)-ethanesulfonyl]-piperidin-4-ylamino}-thiazol-5-yl)-(2,6-difluoro-phenyl)-methanone], IC50 560 nM. Against it:
- C[C@H](NCCS(=O)(=O)N1CCC(Nc2nc(N)c(C(=O)c3c(F)cccc3F)s2)CC1)c1ccccc1 [Example K47] — 2.2-fold lower, 250 nM
- Nc1nc(NC2CCN(S(=O)(=O)CCNCc3ccccc3)CC2)sc1C(=O)c1c(F)cccc1F [Example K48] — within 1.5-fold, 500 nM

Same assay, conditions: Homo sapiens, HCT-116, HCT116 cells; compound at 250 nM; read-out: % Inhibition HCT116 @ 250 nM

Point of comparison: Nc1nc(NC2CCN(S(=O)(=O)CCN[C@@H]3CONC3=O)CC2)sc1C(=O)c1c(F)cccc1F [Example S76], inhibition at 0.25 µM 11%. Against it:
- C#CC(CC)(CC)NCCS(=O)(=O)N1CCC(Nc2nc(N)c(C(=O)c3c(F)cccc3F)s2)CC1 [Example S175] — higher, 99%
- Nc1nc(NC2CCN(S(=O)(=O)CCN3CCC(CCO)CC3)CC2)sc1C(=O)c1c(F)cccc1F [Example S25] — lower, 10%
- CC(CNCCS(=O)(=O)N1CCC(Nc2nc(N)c(C(=O)c3c(F)cccc3F)s2)CC1)N(C)C (stereo not drawn) [Example S131] — higher, 17%
- Nc1nc(NC2CCN(S(=O)(=O)CCN[C@@H](CO)c3ccccc3)CC2)sc1C(=O)c1c(F)cccc1F [Example S79] — higher, 14%
- CC(C)(C)CCNCCS(=O)(=O)N1CCC(Nc2nc(N)c(C(=O)c3c(F)cccc3F)s2)CC1 [Example S121] — higher, 20%
- CC(C)(C)CNCCS(=O)(=O)N1CCC(Nc2nc(N)c(C(=O)c3c(F)cccc3F)s2)CC1 [Example S107] — higher, 98%
- Nc1nc(NC2CCN(S(=O)(=O)CCNCCOc3ccccc3)CC2)sc1C(=O)c1c(F)cccc1F [Example S149] — higher, 36%
- Nc1nc(NC2CCN(S(=O)(=O)CCNCC3CCCO3)CC2)sc1C(=O)c1c(F)cccc1F (stereo not drawn) [Example S77] — lower, 9%
- COCCN(CCOC)CCS(=O)(=O)N1CCC(Nc2nc(N)c(C(=O)c3c(F)cccc3F)s2)CC1 [Example S46] — higher, 58%
- Nc1nc(NC2CCN(S(=O)(=O)CCN3CCC[C@H]3CO)CC2)sc1C(=O)c1c(F)cccc1F [Example S19] — higher, 15%
- Nc1nc(NC2CCN(S(=O)(=O)CCN3CCc4ccccc4C3)CC2)sc1C(=O)c1c(F)cccc1F [Example S27] — higher, 27%
- CCCN(CCS(=O)(=O)N1CCC(Nc2nc(N)c(C(=O)c3c(F)cccc3F)s2)CC1)CC1CC1 [Example S1] — higher, 36%
- CC1CC(NCCS(=O)(=O)N2CCC(Nc3nc(N)c(C(=O)c4c(F)cccc4F)s3)CC2)CC(C)(C)C1 (stereo not drawn) [Example S136] — higher, 81%
- Nc1nc(NC2CCN(S(=O)(=O)CCN[C@H]3CCOC3=O)CC2)sc1C(=O)c1c(F)cccc1F [Example S153] — higher, 100%
- Nc1nc(NC2CCN(S(=O)(=O)CCN[C@@H]3C=CCCC3)CC2)sc1C(=O)c1c(F)cccc1F [Example S170] — higher, 15%
- C=CC(O)CN(CCC)CCS(=O)(=O)N1CCC(Nc2nc(N)c(C(=O)c3c(F)cccc3F)s2)CC1 (stereo not drawn) [Example S47] — lower, 8%
- CCN(CC)CCN(CC)CCS(=O)(=O)N1CCC(Nc2nc(N)c(C(=O)c3c(F)cccc3F)s2)CC1 [Example S43] — higher, 13%
- CN(CCO)CCS(=O)(=O)N1CCC(Nc2nc(N)c(C(=O)c3c(F)cccc3F)s2)CC1 [Example S4] — higher, 25%
- NC(=O)[C@@H]1CCCN1CCS(=O)(=O)N1CCC(Nc2nc(N)c(C(=O)c3c(F)cccc3F)s2)CC1 [Example S20] — higher, 18%
- Nc1nc(NC2CCN(S(=O)(=O)CCNCc3ccccc3F)CC2)sc1C(=O)c1c(F)cccc1F [Example S95] — higher, 51%
- Nc1nc(NC2CCN(S(=O)(=O)CCNCc3ccncc3)CC2)sc1C(=O)c1c(F)cccc1F [Example S83] — lower, 6%
- Nc1nc(NC2CCN(S(=O)(=O)CCN3CCC(O)C3)CC2)sc1C(=O)c1c(F)cccc1F (stereo not drawn) [Example S18] — higher, 14%
- CCOC(=O)CC(C)NCCS(=O)(=O)N1CCC(Nc2nc(N)c(C(=O)c3c(F)cccc3F)s2)CC1 (stereo not drawn) [Example S91] — lower, 10%
- Nc1nc(NC2CCN(S(=O)(=O)CCNCCc3ccncc3)CC2)sc1C(=O)c1c(F)cccc1F [Example S140] — higher, 25%
- CC(C)N(CCS(=O)(=O)N1CCC(Nc2nc(N)c(C(=O)c3c(F)cccc3F)s2)CC1)C(C)C [Example S33] — higher, 79%
- C=CCN(C)CCS(=O)(=O)N1CCC(Nc2nc(N)c(C(=O)c3c(F)cccc3F)s2)CC1 [Example S31] — higher, 27%
- CC(C)CNCCS(=O)(=O)N1CCC(Nc2nc(N)c(C(=O)c3c(F)cccc3F)s2)CC1 [Example S111] — higher, 54%
- CCN(CCS(=O)(=O)N1CCC(Nc2nc(N)c(C(=O)c3c(F)cccc3F)s2)CC1)Cc1ccncc1 [Example S45] — higher, 13%
- Nc1nc(NC2CCN(S(=O)(=O)CCNCc3ccc4c(c3)CCO4)CC2)sc1C(=O)c1c(F)cccc1F [Example S169] — higher, 17%
- COCCN(C)CCS(=O)(=O)N1CCC(Nc2nc(N)c(C(=O)c3c(F)cccc3F)s2)CC1 [Example S65] — lower, 8%
- CSCCNCCS(=O)(=O)N1CCC(Nc2nc(N)c(C(=O)c3c(F)cccc3F)s2)CC1 [Example S133] — higher, 18%
- Nc1nc(NC2CCN(S(=O)(=O)CCN3CCC(CO)CC3)CC2)sc1C(=O)c1c(F)cccc1F [Example S63] — lower, 4%
- Nc1nc(NC2CCN(S(=O)(=O)CCNCc3cc(F)cc(F)c3)CC2)sc1C(=O)c1c(F)cccc1F [Example S154] — higher, 31%
- COC(=O)[C@@H](C)NCCS(=O)(=O)N1CCC(Nc2nc(N)c(C(=O)c3c(F)cccc3F)s2)CC1 [Example S155] — higher, 96%
- CC(C)OCCCNCCS(=O)(=O)N1CCC(Nc2nc(N)c(C(=O)c3c(F)cccc3F)s2)CC1 [Example S123] — higher, 15%
- CC(C)N(CCS(=O)(=O)N1CCC(Nc2nc(N)c(C(=O)c3c(F)cccc3F)s2)CC1)Cc1ccccc1 [Example S44] — higher, 55%
- CN(C)CCNCCS(=O)(=O)N1CCC(Nc2nc(N)c(C(=O)c3c(F)cccc3F)s2)CC1 [Example S114] — higher, 49%
- Nc1nc(NC2CCN(S(=O)(=O)CCNCc3ccccn3)CC2)sc1C(=O)c1c(F)cccc1F [Example S86] — the same, 11%
- NC(=O)C1CCN(CCS(=O)(=O)N2CCC(Nc3nc(N)c(C(=O)c4c(F)cccc4F)s3)CC2)CC1 [Example S48] — higher, 17%
- CC(CCCC(C)(C)O)NCCS(=O)(=O)N1CCC(Nc2nc(N)c(C(=O)c3c(F)cccc3F)s2)CC1 (stereo not drawn) [Example S162] — higher, 22%
- COC(=O)CNCCS(=O)(=O)N1CCC(Nc2nc(N)c(C(=O)c3c(F)cccc3F)s2)CC1 [Example S129] — higher, 25%
- CN(CCS(=O)(=O)N1CCC(Nc2nc(N)c(C(=O)c3c(F)cccc3F)s2)CC1)Cc1cccnc1 [Example S34] — higher, 21%
- Nc1nc(NC2CCN(S(=O)(=O)CCNCC3CC3)CC2)sc1C(=O)c1c(F)cccc1F [Example S139] — higher, 39%
- CN(C)[C@H]1CCN(CCS(=O)(=O)N2CCC(Nc3nc(N)c(C(=O)c4c(F)cccc4F)s3)CC2)C1 [Example S61] — lower, 8%
- Nc1nc(NC2CCN(S(=O)(=O)CCNCCCN3CCCC3=O)CC2)sc1C(=O)c1c(F)cccc1F [Example S71] — higher, 23%
- Nc1nc(NC2CCN(S(=O)(=O)CCNCc3cccs3)CC2)sc1C(=O)c1c(F)cccc1F [Example S88] — higher, 28%
- NC(=O)C1CCCN(CCS(=O)(=O)N2CCC(Nc3nc(N)c(C(=O)c4c(F)cccc4F)s3)CC2)C1 (stereo not drawn) [Example S12] — higher, 19%
- COC(CNCCS(=O)(=O)N1CCC(Nc2nc(N)c(C(=O)c3c(F)cccc3F)s2)CC1)OC [Example S108] — higher, 16%
- Nc1nc(NC2CCN(S(=O)(=O)CCNCCc3ccccn3)CC2)sc1C(=O)c1c(F)cccc1F [Example S85] — higher, 19%
- Nc1nc(NC2CCN(S(=O)(=O)CCN(CCO)CCO)CC2)sc1C(=O)c1c(F)cccc1F [Example S6] — higher, 13%
- C=C(C)CNCCS(=O)(=O)N1CCC(Nc2nc(N)c(C(=O)c3c(F)cccc3F)s2)CC1 [Example S151] — higher, 50%
- CC(C)CN(C)CCS(=O)(=O)N1CCC(Nc2nc(N)c(C(=O)c3c(F)cccc3F)s2)CC1 [Example S38] — higher, 55%
- CC(O)CN(CCS(=O)(=O)N1CCC(Nc2nc(N)c(C(=O)c3c(F)cccc3F)s2)CC1)CC(C)O (stereo not drawn) [Example S11] — higher, 13%
- Nc1nc(NC2CCN(S(=O)(=O)CCN3CCC3)CC2)sc1C(=O)c1c(F)cccc1F [Example S174] — lower, 10%
